Results taken from US20110178041A1, “HETEROCYCLIC BIARYL DERIVATIVE AND PDE INHIBITOR COMPRISING SAME AS ACTIVE INGREDIENT” (priority 2008, published 2011).

Target: T1, PDE4B catalytic zone (PDE4Bcat) (Homo sapiens, UniProt Q07343)
T1 construct: made in house; host or cells: Sf9 insect cells (baculovirus, Bac-to-Bac / Gateway)
Assay: Phosphodiesterase 4 inhibitory activity ([3H]-cAMP, recombinant PDE4Bcat)
Format: biochemical
Conditions: 30° C. 20 minutes, read-out: IC50 (μmol/L) PDE4

T1 sequence (Q07343 330-659 limits assumed): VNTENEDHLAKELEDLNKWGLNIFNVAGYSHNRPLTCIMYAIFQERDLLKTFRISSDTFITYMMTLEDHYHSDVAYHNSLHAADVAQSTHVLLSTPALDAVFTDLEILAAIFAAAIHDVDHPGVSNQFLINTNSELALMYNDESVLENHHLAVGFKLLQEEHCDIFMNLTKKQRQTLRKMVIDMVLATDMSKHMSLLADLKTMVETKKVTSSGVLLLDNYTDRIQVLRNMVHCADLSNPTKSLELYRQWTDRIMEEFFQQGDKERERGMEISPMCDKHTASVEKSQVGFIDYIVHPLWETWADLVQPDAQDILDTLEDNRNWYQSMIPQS

| Compound | IC50 |
| --- | --- |
| COc1ccc(-c2cc(=O)[nH]c3ccccc23)c2cc(C(F)(F)F)nn12 [Example 51, 4-(7-Methoxy-2-trifluoromethylpyrazolo[1,5-a]pyridin-4-yl)quinolin-2(1H)-one] | 0.01 to 0.1 µmol/L |
| COc1ccc(-c2cccc3c(=O)[nH]ccc23)c2cc(C(F)(F)F)nn12 [Example 52, 5-(7-Methoxy-2-trifluoromethylpyrazolo[1,5-a]pyridin-4-yl)iso quinolin-1(2H)-one] | 0.01 to 0.1 µmol/L |
| COc1ccc(-c2ccc3c(c2)CCC(=O)N3)c2cc(C(F)(F)F)nn12 [Example 56, 6-(7-Methoxy-2-trifluoromethylpyrazolo[1,5-a]pyridin-4-yl)-3,4-dihydroquinolin-2(1H)-one] | 0.01 to 0.1 µmol/L |
| COc1ccc(-c2ccc3c(c2)CC(=O)N3)c2cc(C(F)(F)F)nn12 [Example 57, 5-(7-Methoxy-2-trifluoromethylpyrazolo[1,5-a]pyridin-4-yl)indolin-2-one] | 0.01 to 0.1 µmol/L |
| CCc1ccc2c(-c3ccc4[nH]c(=O)ccc4c3)ccc(OC)c2n1 [Example 67, 2-Ethyl-8-methoxy-5,6′-biquinolin-2′(1′H)-one] | 0.01 to 0.1 µmol/L |
| COc1ccc(-c2ccc3[nH]c(=O)ccc3c2)c2ccc(C)nc12 [Example 68, 8-Methoxy-2-methyl-5,6′-biquinolin-2′(1′H)-one] | 0.01 to 0.1 µmol/L |
| COc1ccc(-c2ccc3[nH]c(=O)ccc3c2)c2ccc(C(F)(F)F)nc12 [Example 69, 8-Methoxy-2-trifluoromethyl-5,6′-biquinolin-2′(1′H)-one] | 0.01 to 0.1 µmol/L |
| COc1ccc(-c2ccc3[nH]c(=O)ccc3c2)c2c1OCNC2=O [Example 72, 8-Methoxy-5-(2-oxo-1,2-dihydroquinolin-6-yl)-2H-benzo[e][1,3]oxazin-4-(3H)-one] | 0.01 to 0.1 µmol/L |
| COc1ccc(-c2ccc3[nH]c(=O)ccc3c2)c2c1OCC(=O)N2 [Example 74, 8-Methoxy-5-(2-oxo-1,2-dihydroquinolin-6-yl)-2H-benzo[b][1,4]oxazin-3(4H)-one] | 0.01 to 0.1 µmol/L |
| COc1ccc(-c2ccc3c(=O)[nH]ccc3c2)c2cccnc12 [Example 80, 6-(8-Methoxyquinolin-5-yl)isoquinolin-1(2H)-one] | 0.01 to 0.1 µmol/L |
| CCc1ccc2c(-c3ccc4cc[nH]c(=O)c4c3)ccc(OC)c2n1 [Example 83, 7-(2-Ethyl-8-methoxyquinolin-5-yl)isoquinolin-1(2H)-one] | 0.01 to 0.1 µmol/L |
| CCc1cc2c(-c3ccc4[nH]c(=O)ccc4c3)ccc(OC)n2n1 [Example 87, 6-(2-Ethyl-7-methoxypyrazolo[1,5-a]pyridin-4-yl)quinolin-2(1H)-one] | 0.01 to 0.1 µmol/L |
| COc1ccc(-c2ccc3[nH]c(=O)ccc3c2)c2cncnc12 [Example 88, 6-(8-methoxyquinazolin-5-yl)quinolin-2(1H)-one] | 0.01 to 0.1 µmol/L |
| COc1ccc(-c2ccc3[nH]c(=O)ccc3c2)n2cc(C(F)(F)F)nc12 [Example 90, 6-(8-Methoxy-2-trifluoromethylimidazo[1,2-a]pyridin-5-yl)quinolin-2(1H)-one] | 0.01 to 0.1 µmol/L |
| CCOC(=O)Cn1c(=O)ccc2cc(-c3ccc(OC)n4nc(C(F)(F)F)cc34)ccc21 [Example 92, Ethyl 2-(6-(7-methoxy-2-trifluoromethylpyrazolo[1,5-a]pyridin-4-yl)-2-oxo-quinolin-2(1H)-yl)acetate] | 0.01 to 0.1 µmol/L |
| COc1ccc(-c2ccc3c(ccc(=O)n3CC(=O)O)c2)c2cc(C(F)(F)F)nn12 [Example 93, 2-(6-(7-Methoxy-2-trifluoromethylpyrazolo[1,5-a]pyridin-4-yl)-2-oxoquinolin-2(1H)-yl)acetic acid] | 0.01 to 0.1 µmol/L |
| COc1ccc(-c2ccc3[nH]c(=O)ccc3c2)c2cc(C(F)(F)F)sc12 [Example 111] | 0.01 to 0.1 µmol/L |
| COc1ccc(-c2ccc3c(c2)CCC(=O)N3)c2c(Cl)c(C(F)(F)F)nn12 [Example 116, 6-(3-Chloro-7-methoxy-2-trifluoromethylpyrazolo[1,5-a]pyridin-4-yl)-3,4-dihydroquinolin-2(1H)-one] | 0.01 to 0.1 µmol/L |
| COc1ccc(-c2ccc3c(c2)CCC(=O)N3C)c2c(Cl)c(C(F)(F)F)nn12 [Example 117, 6-(3-Chloro-7-methoxy-2-trifluoromethylpyrazolo[1,5-a]pyridin-4-yl)-1-methyl-3,4-dihydroquinolin-2(1H)-one] | 0.01 to 0.1 µmol/L |
| COc1ccc(-c2ccc3[nH]c(=O)ccc3c2)c2[nH]c(C(F)(F)F)nc12 [Example 118, 6-(4-Methoxy-2-trifluoromethyl-1H-benzo[d]imidazol-7-yl)quinolin-2(1H)-one; or 6-(7-methoxy-2-trifluoromethyl-1H-benzo[d]imidazol-4-yl)quinolin-2(1H)-one] | 0.01 to 0.1 µmol/L |
| COc1ccc(-c2ccc3[nH]c(=O)ccc3c2)c2cccnc12 [Example 120, 6-(8-Methoxyquinolin-5-yl)quinolin-2(1H)-one] | 0.01 to 0.1 µmol/L |
| COc1ccc(-c2ccc3c(c2)CC(C)NC3=O)c2cc(C(F)(F)F)nn12 (stereo not shown) [Example 122, 6-(7-Methoxy-2-trifluoromethylpyrazolo[1,5-a]pyridin-4-yl)-3-methyl-3,4-dihydroisoquinolin-1(2H)-one] | 0.01 to 0.1 µmol/L |
| CNc1ccc(-c2ccc3c(=O)[nH]cc(Cl)c3c2)c2cc(C(F)(F)F)nn12 [Example 138, 4-Chloro-6-(7-(methylamino)-2-trifluoromethylpyrazolo[1,5-a]pyridin-4-yl)isoquinolin-1(2H)-one] | < 0.01 µmol/L |
| CNc1ccc(-c2ccc3c(=O)[nH]cc(Cl)c3c2)c2c(Cl)c(C(F)(F)F)nn12 [Example 139, 4-Chloro-6-(3-chloro-7-(methylamino)-2-trifluoromethylpyrazolo[1,5-a]pyridin-4-yl)isoquinolin-1(2H)-one] | < 0.01 µmol/L |
| Nc1ccc(-c2ccc3[nH]c(=O)ccc3c2)c2cc(C(F)(F)F)nn12 [Example 140, 6-(7-Amino-2-trifluoromethylpyrazolo[1,5-a]pyridin-4-yl)quinolin-2(1H)-one] | < 0.01 µmol/L |
| Nc1ccc(-c2ccc3c(=O)[nH]cc(Cl)c3c2)c2cc(C(F)(F)F)nn12 [Example 141, 6-(7-Amino-2-trifluoromethylpyrazolo[1,5-a]pyridin-4-yl)-4-chloro isoquinolin-1(2H)-one] | 0.01 to 0.1 µmol/L |
| CNc1ccc(-c2ccc3c(=O)[nH]cc(Cl)c3c2)n2cc(C(F)(F)F)nc12 [Example 144, 4-Chloro-6-(8-(methylamino)-2-trifluoromethylimidazo[1,2-a]pyridin-5-yl)isoquinolin-1(2H)-one] | < 0.01 µmol/L |

Second part, the molecule after the results:

| IC50 | Compound |
| --- | --- |
| < 0.01 µmol/L | COc1ccc(-c2ccc3[nH]c(=O)ccc3c2)c2cc(C(F)(F)F)nn12 [Example 50, 6-(7-Methoxy-2-trifluoromethylpyrazolo[1,5-a]pyridin-4-yl)quinolin-2(1H)-one] |
| < 0.01 µmol/L | COc1ccc(-c2ccc3cc[nH]c(=O)c3c2)c2cc(C(F)(F)F)nn12 [Example 54, 7-(7-Methoxy-2-trifluoromethylpyrazolo[1,5-a]pyridin-4-yl)iso quinolin-1(2H)-one] |
| < 0.01 µmol/L | COc1ccc(-c2ccc3[nH]c(=O)ccc3c2)c2c(Cl)c(C(F)(F)F)nn12 [Example 61, 6-(3-Chloro-7-methoxy-2-trifluoromethylpyrazolo[1,5-a]pyridin-4-yl)quinolin-2(1H)-one] |
| < 0.01 µmol/L | CNc1ccc(-c2ccc3[nH]c(=O)ccc3c2)c2c(Cl)c(C(F)(F)F)nn12 [Example 65, 6-(3-Chloro-7-methylamino-2-trifluoromethylpyrazolo[1,5-a]pyridin-4-yl)quinolin-2(1H)-one] |
| < 0.01 µmol/L | CNc1ccc(-c2ccc3c(c2)CCNC3=O)c2c(Cl)c(C(F)(F)F)nn12 [Example 66] |
| < 0.01 µmol/L | COc1ccc(-c2ccc3[nH]c(=O)ccc3c2)c2nc(C(F)(F)F)nn12 [Example 70, 6-(5-Methoxy-2-trifluoromethyl[1,2,4]triazolo[1,5-a]pyridin-8-yl) quinolin-2(1H)-one] |
| < 0.01 µmol/L | COc1ccc(-c2ccc3[nH]c(=O)ccc3c2)c2sc(C(F)(F)F)nc12 [Example 71, 6-(4-Methoxy-2-trifluoromethylbenzo[d]thiazol-7-yl)quinolin-2(1H)-one] |
| < 0.01 µmol/L | COc1ccc(-c2ccc3[nH]c(=O)ccc3c2)c2nccnc12 [Example 86, 6-(8-Methoxyquinoxalin-5-yl)quinolin-2(1H)-one] |
| < 0.01 µmol/L | COc1ccc(-c2ccc3c(ccc(=O)n3C)c2)c2cc(C(F)(F)F)nn12 [Example 91, 6-(7-Methoxy-2-trifluoromethylpyrazolo[1,5-a]pyridin-4-yl)-1-methyl quinolin-2(1H)-one] |
| < 0.01 µmol/L | COc1ccc(-c2ccc3c(ccc(=O)n3Cc3ccccc3)c2)c2cc(C(F)(F)F)nn12 [Example 94, 1-Benzyl-6-(7-methoxy-2-trifluoromethylpyrazolo[1,5-a]pyridin-4-yl)quinolin-2(1H)-one] |
| < 0.01 µmol/L | CCc1nc2c(OC)ccc(-c3ccc4[nH]c(=O)ccc4c3)c2o1 [Example 112, 6-(2-Ethyl-4-methoxybenzo[d]oxazol-7-yl)quinolin-2(1H)-one] |
| < 0.01 µmol/L | COc1ccc(-c2ccc3[nH]c(=O)ccc3c2)c2cc(C3CC3)nn12 [Example 114, 6-(2-Cyclopropyl-7-methoxypyrazolo[1,5-a]pyridin-4-yl)quinolin-2(1H)-one] |
| < 0.01 µmol/L | COc1ccc(-c2ccc3[nH]c(=O)ccc3c2)c2cc(C(F)(F)F)oc12 [Example 119, 6-(7-Methoxy-2-trifluoromethylbenzofuran-4-yl)quinolin-2(1H)-one] |
| < 0.01 µmol/L | COc1ccc(-c2ccc3c(=O)[nH]cc(Cl)c3c2)c2c(Cl)c(C(F)(F)F)nn12 [Example 125, 4-Chloro-6-(3-chloro-7-methoxy-2-trifluoromethylpyrazolo[1,5-a]pyridin-4-yl)isoquinolin-1(2H)-one] |
| < 0.01 µmol/L | COc1ccc(-c2ccc3c(=O)[nH]cc(Cl)c3c2)n2c(Cl)c(C(F)(F)F)nc12 [Example 126, 4-Chloro-6-(3-chloro-8-methoxy-2-trifluoromethylimidazo[1,2-a]pyridin-5-yl)isoquinolin-1(2H)-one] |
| < 0.01 µmol/L | CNc1ccc(-c2ccc3c(ccc(=O)n3C)c2)c2c(Cl)c(C(F)(F)F)nn12 [Example 137] |
